The test system of one data set is Staphylococcus capitis. Nature of the data set: Antimicrobial activity against Staphylococcus capitis W7 assessed as reduction in microbial growth by broth microdilution method. It is filed as functional.
The next data set deals with Micrococcus luteus. As to the kind of experiment: Antimicrobial activity against Micrococcus luteus ATCC 4685 assessed as reduction in microbial growth by broth microdilution method. The format is functional.
In data set [1] the test system is Staphylococcus aureus. As to the kind of experiment: Antimicrobial activity against methicillin resistant Staphylococcus aureus assessed as reduction in microbial growth by broth microdilution method. The format is functional.
In another data set the test system is Enterococcus. Nature of the data set: Antimicrobial activity against Vancomycin-resistant Enterococci assessed as reduction in microbial growth by broth microdilution method. It is filed as functional.
Data set [2] has as its system Staphylococcus aureus. Nature of the data set: Antimicrobial activity against Staphylococcus aureus LV-B1 assessed as reduction in microbial growth by broth microdilution method. The format is functional.
The test system of the next data set is Bacillus subtilis. As to the kind of experiment: Antimicrobial activity against Bacillus subtilis ATCC 6051 assessed as reduction in microbial growth by broth microdilution method. The format is functional.
The subject of another data set is Klebsiella pneumoniae. Nature of the data set: Antimicrobial activity against Klebsiella pneumoniae W5 assessed as reduction in microbial growth by broth microdilution method. The format is functional.
The test system of the next data set is Escherichia coli. As to the kind of experiment: Antimicrobial activity against Escherichia coli CGMCC 1.3344 assessed as reduction in microbial growth by broth microdilution method. The format is functional.
The test system of the next data set is Shigella sonnei. Nature of the data set: Antimicrobial activity against Shigella sonnei ZD12 assessed as reduction in microbial growth by broth microdilution method. The format is functional.
The subject of a further data set is Paracidovorax avenae. Nature of the data set: Antimicrobial activity against Acidovorax avenae ATCC 19307 assessed as reduction in microbial growth by broth microdilution method. It is filed as functional.
Another data set concerns Pseudomonas syringae. Nature of the data set: Antimicrobial activity against Pseudomonas syringae ATCC-BAA-2502 assessed as reduction in microbial growth by broth microdilution method. It is filed as functional.
The next data set has as its system Xanthomonas oryzae. Nature of the data set: Antimicrobial activity against Xanthomonas oryzae ATCC 35933 assessed as reduction in microbial growth by broth microdilution method. The format is functional.
The subject of a further data set is A549. As to the kind of experiment: Anticancer activity against human A549 cells assessed as reduction in cell viability at 40 uM measured after 48 hrs by CCK-8 method relative to control. It is filed as functional.
In another data set the test system is HepG2. As to the kind of experiment: Anticancer activity against human HepG2 cells assessed as reduction in cell viability at 40 uM measured after 48 hrs by CCK-8 method relative to control. The format is functional.
In a further data set the test system is SW480. As to the kind of experiment: Anticancer activity against human SW480 cells assessed as reduction in cell viability at 40 uM measured after 48 hrs by CCK-8 method relative to control. The format is functional.
In a further data set the test system is MDA-MB-231. Nature of the data set: Anticancer activity against human MDA-MB-231 cells assessed as reduction in cell viability at 40 uM measured after 48 hrs by CCK-8 method relative to control. The format is functional.
The next data set concerns MCF7. As to the kind of experiment: Anticancer activity against human MCF7 cells assessed as reduction in cell viability at 40 uM measured after 48 hrs by CCK-8 method relative to control. It is filed as functional.
The test system of data set [3] is RAW264.7. Nature of the data set: Cytotoxicity against mouse RAW264.7 cells measured after 24hrs by CCK-8 method relative to control. The format is toxicity, cell-based. Set-up: concentration or dose not given beside the values. To be noted: raw264.7, 24 h.
The test system of data set [4] is RAW264.7. Nature of the data set: Antiinflammatory activity in mouse RAW264.7 assessed as reduction in LPS-induced NO production incubated for 24 hrs by Griess method relative to control. The format is functional. Set-up: concentration or dose not given beside the values.

The text below walks through data of ChEMBL document CHEMBL5357033, “Discovery of Diverse Sesquiterpenoids from Crossiella cryophila through Genome Mining and NMR Tracking” (J Nat Prod, 2024).

Molecules are shown by their SMILES.

As for `C[C@H]1CC[C@@H]2[C@H]3[C@H]1OC(C)(C)[C@@H]3CC[C@@]2(C)O` (relative stereo), the MIC in the data set on Staphylococcus capitis, in the data set with Micrococcus luteus, in the data set on Staphylococcus aureus [1], in the data set with Enterococcus, in the data set with Staphylococcus aureus [2] and in the data set with Bacillus subtilis was greater than 128 µg/mL throughout. The MIC in the data set with Klebsiella pneumoniae, with Escherichia coli, in the data set with Shigella sonnei, in the data set on Paracidovorax avenae, with Pseudomonas syringae and in the data set on Xanthomonas oryzae was greater than 128 µg/mL each time. Further, the Activity with A549 is listed as 12.03%; in the data set with HepG2, -8.24%; with SW480, -11.92%; in the data set on MDA-MB-231, 4.18%; in the data set with MCF7 it was 14.7%; in the data set with RAW264.7 [3], 94.77%. Further, the Activity with RAW264.7 [4] is listed as -7.88%.

Turning to `C/C1=C\CC/C(CO)=C\[C@H]2[C@H](C[C@H]1O)C2(C)C`, the MIC with Staphylococcus capitis, with Micrococcus luteus, in the data set with Staphylococcus aureus [1], with Enterococcus, in the data set on Staphylococcus aureus [2] and with Bacillus subtilis was greater than 128 µg/mL in each case. The MIC in the data set with Klebsiella pneumoniae, with Escherichia coli, with Shigella sonnei, in the data set with Paracidovorax avenae, in the data set on Pseudomonas syringae and in the data set on Xanthomonas oryzae was greater than 128 µg/mL each time. For the same compound, the Activity with A549 came to 7.59%; in the data set with HepG2, 6.04%; with SW480, 46.36%; in the data set with MDA-MB-231, 6.53%; in the data set with MCF7, 15.37%; in the data set on RAW264.7 [3], 83.59%. In addition, in the data set on RAW264.7 [4], the Activity is reported as -1.42%.

Take `CC1=C[C@@H]2[C@@H](C(C)C)CC[C@@](C)(O)[C@@H]2CC1=O`: the MIC with Staphylococcus capitis, in the data set on Micrococcus luteus, in the data set on Staphylococcus aureus [1], with Enterococcus, with Staphylococcus aureus [2] and in the data set with Bacillus subtilis was greater than 128 µg/mL in each case. Besides, the MIC in the data set on Klebsiella pneumoniae, in the data set on Escherichia coli, in the data set on Shigella sonnei, in the data set on Paracidovorax avenae, in the data set on Pseudomonas syringae and in the data set on Xanthomonas oryzae was greater than 128 µg/mL each time. Further, the Activity in the data set with A549 was 8.55%; with HepG2, -9.79%; with SW480 it was -22.26%; in the data set with MDA-MB-231, 20.55%; with MCF7, 13.45%; with RAW264.7 [3], 82.62%. Moreover, in the data set on RAW264.7 [4], the Activity was -11.3%.

Take `C[C@@H]1C(=O)C[C@@H]2[C@H]3[C@H]1OC(C)(C)[C@H]3CC[C@@]2(C)O`: the MIC in the data set on Staphylococcus capitis, with Micrococcus luteus, with Staphylococcus aureus [1], with Enterococcus, in the data set with Staphylococcus aureus [2] and with Bacillus subtilis was greater than 128 µg/mL throughout. The MIC with Klebsiella pneumoniae, with Escherichia coli, in the data set on Shigella sonnei, in the data set on Paracidovorax avenae, with Pseudomonas syringae and in the data set on Xanthomonas oryzae was greater than 128 µg/mL each time. Further, the Activity in the data set with A549 was 0.67%; in the data set on HepG2, -1.81%; with SW480, 13.67%; with MDA-MB-231, -3.76%; in the data set with MCF7, 9.07%; with RAW264.7 [3] it was 91.87%. In addition, the Activity in the data set with RAW264.7 [4] is listed as -1.87%.
